Measured values: US8394377B2, “Methods for treating cancer using combination therapy” (The Regents of the University of Colorado, priority 2008, dated 2013)

Columns and labels:
Assay type in all cases: cell-based
[1] = Percent viability of treated MCF7 cells (flow cytometry); conditions: human, 5 mg/ml DCA, 0.1 mg/ml Etomoxir, or both, time point (24 or 48 hrs) not given
Experimental: (§1) 1. Cell Culture Conditions: The MCF7 and MCF7 ADR cell lines were purchased from American Type Culture Collection, were thawed, and grown in RPMI 1640 medium supplemented with standard supplements, including 10% fetal calf serum, gentamycin, penicillin, streptomycin, sodium pyruvate, HEPES buffer, 1-glutamine, and 2-ME.
(§2) 2. Methods: Cells were plated into a 12 well plate with 4 mis total volume containing approximately 0.6×10^6/well for MCF7 cells and 0.8×10^6/well for MCF7 ADR cells. Treatment groups included no treatment as control; 5 mg/ml Dichloroacetate; 0.1 mg/ml Etomoxir; Both 5 mg/ml DCA and 0.1 mg/ml Etomoxir.
(§3) The cells were incubated at 37° C. in an atmosphere containing 5% CO2 and approximately 92% humidity. The cells were incubated for 24 and 48 hours. At each time point, the cells from that experimental time were harvested and stained for flow cytometric analysis of cell surface expression of HER-2/neu using anti-human HER-2 Fitc. (BD biosciences, Catalogue #340553).

[2] = Percent viability of treated MCF7 ADR cells (flow cytometry); conditions: human, 5 mg/ml DCA, 0.1 mg/ml Etomoxir, or both, time point (24 or 48 hrs) not given
Experimental: as §1, §2, §3

HER-2 on MCF7 ADR cells = test: Cell surface HER-2 expression by flow cytometry with FITC anti-human HER-2
Experimental: as §1, §2, §3
Harvested cells were stained using standard fixed staining procedure that called for a 1:5 dilution of Fitc-anti-human HER-2 or isotype control. […] Samples were acquired and analyzed on a Coulter Excel Flow Cytometer. […]
The results in the Figures are expressed in histogram analyses. The Y axis represents cell number of the 5000 live cells versus the X axis which is a reflection of relative Fitc fluorescence. […]

SMILES	viability [1]	viability [2]	HER-2 expression (HER-2 on MCF7 ADR cells; HER-2 lo/negative MCF7-Adr cells, as shown in the figures)	HER-2 cell surface expression (HER-2 on MCF7 ADR cells; MCF7 ADR cells, 48 hours, 0.1 mg/ml Etomoxir)
O=C(O)C(Cl)Cl [DCA, Dichloroacetate]	42%	58%		
CCOC(=O)C1(CCCCCCOc2ccc(Cl)cc2)CO1 (stereo not drawn) [Etomoxir, 2-(6-(4-chlorophenoxy)-hexyl)-oxirane-2-carboxylic acid ethyl ester]	78%	66%	major increase	noticeable Increase
